According to patent EP0643964A2 (priority 1993, dated 1995):
“And” between values parts separate entries of the source, which are not always exact repeats. Equal entries are not always repeated.

Assays:
[1] = global anesthesia by intravenous route; one death in more than 6200 patients; cited from earlier work
[2] = molecular target: pseudocholines-terase (Homo sapiens, UniProt P06276); details: cited from earlier work
[3] = in vivo; cited from earlier work
[4] = system: Giardia lamblia; test: Patients with malabsorption syndrome (MAS) caused by Giardia lamblia; format: in vivo, human; details: Volunteer # 1, 7 days of treatment; recurrence one month later
Source text: Volunteer # 1: Type II MAS with positive isolation of Giardia lamblia in duodenal washings and confirmation of the disease by histopathology. […] One month later, patient 1 presented symptoms and signs of recurrence of the disease, with positive isolation of parasites in feces.
Volunteer # 2: with diffuse abdominal pain, loss of body weight and steatorrhea.

[5] = system: M3 tumor; test: M3 transplanted mice, tumor area (lidocaine and epidoxorrubicine); format: in vivo
[6] = system: herpes simplex; test: Evolution of recidivant periorificial herpes simplex infection in volunteers; format: in vivo, human
Protocol: Patients were divided into 3 groups: one of the groups (n=4) received acyclovir by oral route and topical applications of the same drug. […] Experiments began with the appearance of the next episode of herpes, just in the moment when vesicles appeared.
All these patients were controlled monthly during the following 4 months. During this time, group A patients presented episodes with a pattern similar to that they had before the experiment was performed. […] The remaining two presented an episode of herpes 2.8 and 3.3 months later.

[7] = herpes simplex episode, ACV oral+topical, lidocaine 5 ml 2% i.v. twice a day 2 days

Sequence of pseudocholines-terase (P06276 29-602, species assumed): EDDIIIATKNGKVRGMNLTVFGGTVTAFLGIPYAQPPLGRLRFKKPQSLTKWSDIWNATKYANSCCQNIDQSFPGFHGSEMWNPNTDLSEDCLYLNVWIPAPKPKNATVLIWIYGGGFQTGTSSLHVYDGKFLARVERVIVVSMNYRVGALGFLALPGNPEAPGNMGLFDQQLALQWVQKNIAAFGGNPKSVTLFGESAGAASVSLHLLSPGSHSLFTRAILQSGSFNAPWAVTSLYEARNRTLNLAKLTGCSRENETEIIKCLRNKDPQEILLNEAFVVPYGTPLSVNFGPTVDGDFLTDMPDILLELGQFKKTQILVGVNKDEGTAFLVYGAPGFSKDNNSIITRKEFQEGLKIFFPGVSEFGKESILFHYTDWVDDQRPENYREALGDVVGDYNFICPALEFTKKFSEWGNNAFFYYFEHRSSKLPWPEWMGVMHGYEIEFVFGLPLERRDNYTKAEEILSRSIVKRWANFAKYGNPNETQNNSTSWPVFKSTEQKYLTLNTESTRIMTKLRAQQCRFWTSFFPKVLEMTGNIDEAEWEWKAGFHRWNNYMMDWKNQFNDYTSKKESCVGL

CCN(CC)CCOC(=O)c1ccc(N)cc1 [procaine]
deaths [1]: less than 0.01% | cleavage rate ([2]; hydrolysis in blood plasma and liver): 20 mg. per minute | half life [3]: about 0.7 minutes

CCCCNc1ccc(C(=O)OCCN(C)C)cc1 [tetracaine]
velocity of cleavage relative to procaine [2]: about 5 times more slowly than procaine

Cc1ncc([N+](=O)[O-])n1CCO [metronidazole]
Clinical evolution [4]: good evolution

COc1cccc2c1C(=O)c1c(O)c3c(c(O)c1C2=O)C[C@@](O)(C(=O)CO)C[C@@H]3O[C@H]1C[C@H](N)[C@@H](O)[C@H](C)O1 [epidoxorrubicine]
Area (tumor) ([5]; day 7 p-t (day 0), lidocaine 0.1 ml 0.05% every 7 days, epidoxorrubicine 0.125 ml 0.2% every 7 days, combination: lidocaine 2 days after epidoxorrubicine): 0.46 | Area (tumor) ([5]; day 10 p-t, regimens as Table 5 footnotes, saline control 0.92): 0.90 | I/Ø: Percentual increment over tumor in day 0 (day 7 p-t) ([5]; day 10 p-t, saline control 103.47): 95.65% | Area (tumor) ([5]; day 12 p-t, regimens as Table 5 footnotes, saline control 1.56): 1.56 | I/Ø: Percentual increment over tumor in day 0 (day 7 p-t) ([5]; day 12 p-t, saline control 245.61): 238.04% | Area (tumor) ([5]; day 14 p-t, regimens as Table 5 footnotes, saline control 2.06): 2.36 | I/Ø: Percentual increment over tumor in day 0 (day 7 p-t) ([5]; day 14 p-t, saline control 357.57): 413.04% | I/Ø: Percentual increment over tumor in day 0 (day 7 p-t) ([5]; day 16 p-t, saline control 516.74): 316.30% | Area (tumor) ([5]; day 18 p-t, regimens as Table 5 footnotes, saline control 3.61): 2.41 | I/Ø: Percentual increment over tumor in day 0 (day 7 p-t) ([5]; day 18 p-t, saline control 701.39): 422.83% | Area (tumor) ([5]; day 21 p-t, regimens as Table 5 footnotes, saline control 4.61): 3.39 | I/Ø: Percentual increment over tumor in day 0 (day 7 p-t) ([5]; day 21 p-t, saline control 923.86): 637.68% | Area (tumor) ([5]; day 23 p-t, regimens as Table 5 footnotes, saline control 5.49): 3.57 | I/Ø: Percentual increment over tumor in day 0 (day 7 p-t) ([5]; day 23 p-t, saline control 1119.69): 676.81% | Area (tumor) ([5]; day 25 p-t, regimens as Table 5 footnotes, saline control 6.24): 4.16 | I/Ø: Percentual increment over tumor in day 0 (day 7 p-t) ([5]; day 25 p-t, saline control 1286.33): 804.35% | Area (tumor) ([5]; mouse, in vivo): 1.92

Nc1nc2c(ncn2COCCO)c(=O)[nH]1 [ACV, acyclovir]
Duration of lesions [6, 7]: 7 days | Duration of symptoms [6, 7]: 4 days | FIRST EPISODE AFTER TREATMENT ([6]; individual patients, followed monthly for 4 months): 31 d. and 29 d d. and 33 d d. and 40 d.
